Data as given in US20210115018A1, “PIPERIDINE COMPOUNDS AS COVALENT MENIN INHIBITORS” (THE REGENTS OF THE UNIVERSITY OF MICHIGAN, priority 2018, published 2021).

Test system: MV4-11
Experiment: 7-day proliferation assay (WST-8), cell growth inhibition
Assay type: cell-based
Details: MV4-11 cells, 7 days
Procedure: The effect of representative Compounds of the Disclosure on cell viability was determined in a 7-day proliferation assay. Cells were maintained in the appropriate culture medium with 10% FBS at 37° C. and an atmosphere of 5% CO2.
Cells were seeded in 96-well flat bottom (Corning COSTAR, Corning, NY, cat#3595) at a density of 2,000-3,000 cells/well in 100 μl of culture medium. Compounds were serially diluted in the appropriate medium, and […] the diluted compounds were added to the appropriate wells of the cell plate. After the addition of compounds, the cells were incubated at 37° C. in an atmosphere of 5% CO2 for 7 days. Cell viability was determined using the WST (2-(2-methoxy-4-nitrophenyl)-3-(4-nitrophenyl)-5-(2,4-disulfophenyl)-2H-tetrazolium, monosodium salt) Cell Counting-8 Kit (Dojindo Molecular Technologies, Inc., Rockville, Md.) according to the manufacturers' instructions.
WST-8 reagent was added to each well at a final concentration of 10% (v/v), and then the plates were incubated at 37° C. for 1-2 hours for color development. The absorbance was measured at 450 nm using a SPECTRAmax PLUS plate reader (Molecular Devices, Sunnyvale, Calif.). The readings were normalized to the DMSO-treated cells and the half maximal inhibitory concentration (IC50) was calculated by nonlinear regression (four parameters sigmoid fitted with variable slope, least squares fit, and no constraint) analysis using the GraphPad Prism 5 software (GraphPad Software, La Jolla, Calif.).

Structure (SMILES)	IC50 (Homo sapiens, MV4-11, 168 h) [nM]	IC50 [nM]
C=CC(=O)Nc1cccc(S(=O)(=O)c2ccc(N3CC(CN4CCC([C@@](CN5CCC5)(c5cccc(F)c5)[C@H]5CCC[C@@H]5NC(=O)OC)CC4)C3)c(F)c2)c1 [compound 73]	< 10	–
C=CC(=O)Nc1cc(S(=O)(=O)c2ccc(N3CC(CN4CCC([C@@](CN5CCC5)(c5cccc(F)c5)[C@H]5CCC[C@@H]5NC(=O)OC)CC4)C3)cc2)ccc1N(C)CCN(C)C [compound 74]	< 50	–
C=CC(=O)N(C)c1cccc(S(=O)(=O)c2ccc(N3CC(CN4CCC([C@@](CN5CCC5)(c5cccc(F)c5)[C@H]5CCC[C@@H]5NC(=O)OC)CC4)C3)cc2)c1 [compound 77]	< 50	–
C=CC(=O)Nc1cc(C(F)(F)F)cc(S(=O)(=O)c2ccc(N3CC(CN4CCC([C@@](CN5CCC5)(c5cccc(F)c5)[C@H]5CCC[C@@H]5NC(=O)OC)CC4)C3)cc2)c1 [compound 78]	< 10	–
C=CC(=O)Nc1cncc(S(=O)(=O)c2ccc(N3CC(CN4CCC([C@@](CN5CCC5)(c5cccc(F)c5)[C@H]5CCC[C@@H]5NC(=O)OC)CC4)C3)cc2)c1 [compound 79]	< 50	–
C=CC(=O)Nc1cc(S(=O)(=O)c2ccc(N3CC(CN4CCC([C@@](CN5CCC5)(c5cccc(F)c5)[C@H]5CCC[C@@H]5NC(=O)OC)CC4)C3)cc2)ccc1C(F)(F)F [compound 81]	< 50	–
C=CC(=O)Nc1cncc(S(=O)(=O)c2ccc(N3CC(F)(CN4CCC([C@@](CN5CCC5)(c5cccc(F)c5)[C@H]5CCC[C@@H]5NC(=O)OC)CC4)C3)c(F)c2)c1 [compound 84]	< 50	–
C=CC(=O)Nc1ccnc(S(=O)(=O)c2ccc(N3CC(F)(CN4CCC([C@@](CN5CCC5)(c5cccc(F)c5)[C@H]5CCC[C@@H]5NC(=O)OC)CC4)C3)c(F)c2)c1 [compound 87]	< 500	–
C=CC(=O)Nc1cc(F)cc(S(=O)(=O)c2ccc(N3CC(F)(CN4CCC([C@@](CN5CCC5)(c5cccc(F)c5)[C@H]5CCC[C@@H]5NC(=O)OC)CC4)C3)c(F)c2)c1 [compound 89]	< 50	–
C=CC(=O)Nc1cc(S(=O)(=O)c2ccc(N3CC(F)(CN4CCC([C@@](CN5CCC5)(c5cccc(F)c5)[C@H]5CCC[C@@H]5NC(=O)OC)CC4)C3)c(F)c2)ccc1F [compound 90]	< 50	–
C=CC(=O)N1CC(S(=O)(=O)c2ccc(N3CC(F)(CN4CCC([C@@](CN5CCC5)(c5cccc(F)c5)[C@H]5CCC[C@@H]5NC(=O)OC)CC4)C3)c(F)c2)C1 [compound 93]	< 50	–
COC(=O)N[C@H]1CCC[C@@H]1[C@](CN1CCC1)(c1cccc(F)c1)C1CCN(CC2(F)CN(c3ccc(S(=O)(=O)C4CN(C(=O)/C=C/CN(C)C)C4)cc3F)C2)CC1 [compound 96]	< 10	–
C=CC(=O)Nc1cc(S(=O)(=O)c2ccc(N3CC(F)(CN4CCC([C@@](CN5CCC5)(c5cccc(F)c5)[C@H]5CCC[C@@H]5NC(=O)OC)CC4)C3)c(F)c2)ccc1C [compound 97]	< 10	–
COC(=O)N[C@H]1CCC[C@@H]1[C@](CN1CCC1)(c1cccc(F)c1)C1CCN(CC2CN(c3ccc(S(=O)(=O)C4CN(C(=O)/C=C/CN5CCC(O)CC5)C4)cc3)C2)CC1 [compound 98]	< 10	–
C#CC(=O)N1CC(S(=O)(=O)c2ccc(N3CC(F)(CN4CCC([C@@](CN5CCC5)(c5cccc(F)c5)[C@H]5CCC[C@@H]5NC(=O)OC)CC4)C3)c(F)c2)C1 [compound 101]	< 500	–
C=CC(=O)Nc1cccc(S(=O)(=O)c2ccc(N3CC[C@@H](CN4CCC([C@@](CN5CCC5)(c5cccc(F)c5)[C@H]5CCC[C@@H]5NC(=O)OC)CC4)C3)cc2)c1 [compound 104]	< 100	–
C=CC(=O)N1CCCC(S(=O)(=O)c2ccc(N3CC(F)(CN4CCC([C@@](CN5CCC5)(c5cccc(F)c5)[C@H]5CCC[C@@H]5NC(=O)OC)CC4)C3)c(F)c2)C1 (some centres unmarked) [compound 105]	< 50	–
C=CC(=O)N1CCCC(S(=O)(=O)c2ccc(N3CC(F)(CN4CCC([C@@](CN5CCC5)(c5cccc(F)c5)[C@H]5CCC[C@@H]5NC(=O)OC)CC4)C3)c(F)c2)C1 (some centres unmarked) [compound 106]	–	< 50
C=CC(=O)N1CCC(S(=O)(=O)c2ccc(N3CC(F)(CN4CCC([C@@](CN5CCC5)(c5cccc(F)c5)[C@H]5CCC[C@@H]5NC(=O)OC)CC4)C3)c(F)c2)C1 (some centres unmarked) [compound 107]	–	< 500

Now from value to compound:

IC50 (Homo sapiens, MV4-11, 168 h) [nM]	IC50 [nM]	Structure (SMILES)
–	< 100	C=CC(=O)N1CCC(S(=O)(=O)c2ccc(N3CC(F)(CN4CCC([C@@](CN5CCC5)(c5cccc(F)c5)[C@H]5CCC[C@@H]5NC(=O)OC)CC4)C3)c(F)c2)C1 (some centres unmarked) [compound 108]
< 50	–	CC#CC(=O)N1CCCC(S(=O)(=O)c2ccc(N3CC(F)(CN4CCC([C@@](CN5CCC5)(c5cccc(F)c5)[C@H]5CCC[C@@H]5NC(=O)OC)CC4)C3)c(F)c2)C1 (some centres unmarked) [compound 109]
< 100	–	COC(=O)N[C@H]1CCC[C@@H]1[C@](CN1CCC1)(c1cccc(F)c1)C1CCN(CC2(F)CN(c3ccc(S(=O)(=O)C4CCCN(C(=O)/C=C/CN5CCCCC5)C4)cc3F)C2)CC1 (some centres unmarked) [compound 110]
< 500	–	C#CC(=O)N1CCCC(S(=O)(=O)c2ccc(N3CC(F)(CN4CCC([C@@](CN5CCC5)(c5cccc(F)c5)[C@H]5CCC[C@@H]5NC(=O)OC)CC4)C3)c(F)c2)C1 (some centres unmarked) [compound 111]
< 50	–	C=CC(=O)N1CCCC(S(=O)(=O)c2ccc(N3CC(C)(CN4CCC([C@@](CN5CCC5)(c5cccc(F)c5)[C@H]5CCC[C@@H]5NC(=O)OC)CC4)C3)c(F)c2)C1 (some centres unmarked) [compound 113]
–	< 50	CC#CC(=O)N1CCCC(S(=O)(=O)c2ccc(N3CC(F)(CN4CCC([C@@](CN5CCC5)(c5cccc(F)c5)[C@H]5CCC[C@@H]5NC(=O)OC)CC4)C3)c(F)c2)C1 (some centres unmarked) [compound 114]
< 50	–	CC#CC(=O)N1CC[C@@H](S(=O)(=O)c2ccc(N3CC(F)(CN4CCC([C@@](CN5CCC5)(c5cccc(F)c5)[C@H]5CCC[C@@H]5NC(=O)OC)CC4)C3)c(F)c2)C1 [compound 115]
< 100	–	CCOC(=O)/C=C/CNC(=O)c1cccc(S(=O)(=O)c2ccc(N3CC(F)(CN4CCC([C@@](CN5CCC5)(c5cccc(F)c5)[C@H]5CCC[C@@H]5NC(=O)OC)CC4)C3)cc2)c1 [compound 119]
< 10	–	COC(=O)N[C@H]1CCC[C@@H]1[C@](CN1CCC1)(c1cccc(F)c1)C1CCN(CC2(F)CN(c3ccc(S(=O)(=O)c4cccc(C(=O)NC/C=C/S(C)(=O)=O)c4)cc3)C2)CC1 [compound 120]
< 100	–	COC(=O)N[C@H]1CCC[C@@H]1[C@](CN1CCC1)(c1cccc(F)c1)C1CCN(CC2(F)CN(c3ccc(S(=O)(=O)C4CCCN(C(=O)C#CCO)C4)cc3F)C2)CC1 (some centres unmarked) [compound 121]
< 10	–	COC(=O)N[C@H]1CCC[C@@H]1[C@](CN1CCC1)(c1cccc(F)c1)C1CCN(CC2(F)CN(c3ccc(S(=O)(=O)C4CCCN(C(=O)NC/C=C/S(C)(=O)=O)C4)cc3F)C2)CC1 (some centres unmarked) [compound 123]
< 10	–	COC(=O)N[C@H]1CCC[C@@H]1[C@](CNC(C)=O)(c1cccc(F)c1)C1CCN(CC2CN(c3ccc(S(=O)(=O)C4CN(C(=O)/C=C/CN5CCCCC5)C4)cc3)C2)CC1 [compound 129]
< 10	–	CC#CC(=O)N1CC(S(=O)(=O)c2ccc(N3CC(CN4CCC([C@@](CNC(C)=O)(c5cccc(F)c5)[C@H]5CCC[C@@H]5NC(=O)OC)CC4)C3)cc2)C1 [compound 130]
< 500	–	C=CC(=O)N1CCCC(S(=O)(=O)c2ccc(N3CC(F)(CN4CCC([C@@](CNC(C)=O)(c5cccc(F)c5)[C@H]5CCC[C@@H]5NC(=O)OC)CC4)C3)cc2)C1 (some centres unmarked) [compound 149]
< 10	–	CC#CC(=O)N1CC(S(=O)(=O)c2ccc(N3CC(CN4CCC([C@@](CNC(C)=O)(c5cccc(F)c5)[C@H]5CCC[C@@H]5NC(=O)OC)CC4)C3)cc2CN2CC(F)C2)C1 [compound 164]
< 50	–	CC#CC(=O)N1CC(S(=O)(=O)c2ccc(N3CC(F)(CN4CCC([C@@](CNC(C)=O)(c5cccc(F)c5)[C@H]5CCC[C@@H]5NC(=O)OC)CC4)C3)cc2CN2CC(F)C2)C1 [compound 178]
< 100	–	C=CC(=O)N1CCOC[C@@H](S(=O)(=O)c2ccc(N3CC(F)(CN4CCC([C@@](CNC(=O)OC)(c5cccc(F)c5)[C@H]5CCC[C@@H]5NC(=O)OC)CC4)C3)c(F)c2)C1 [compound 180]
< 10	–	CC#CC(=O)N1CCC[C@H](S(=O)(=O)c2ccc(N3CC(F)(CN4CCC([C@@](CN5CCC5)(c5cccc(F)c5)[C@H]5CCC[C@@H]5NC(=O)OC)CC4)C3)c(F)c2)C1 [compound 192]
< 500	–	CC#CC(=O)N1CC[C@H](S(=O)(=O)c2ccc(N3CC(F)(CN4CCC([C@@](CN5CCC5)(c5cccc(F)c5)[C@H]5CCC[C@@H]5NC(=O)OC)CC4)C3)c(F)c2)C1 [compound 194]
< 10	–	C=CC(=O)N1CCC[C@@H](S(=O)(=O)c2ccc(N3CC(O)(CN4CCC([C@@](CN5CCC5)(c5cccc(F)c5)[C@H]5CCC[C@@H]5NC(=O)OC)CC4)C3)cc2)C1 [compound 195]
< 100	–	C=CC(=O)N1CCC[C@@H](S(=O)(=O)c2ccc(N3CC(CF)(CN4CCC([C@@](CN5CCC5)(c5cccc(F)c5)[C@H]5CCC[C@@H]5NC(=O)OC)CC4)C3)cc2)C1 [compound 196]
< 10	–	C=CC(=O)N1CCC[C@@H](S(=O)(=O)c2ccc(N3CC(CN4CCC([C@@](CN5CCC5)(c5cccc(F)c5)[C@H]5CCC[C@@H]5NC(=O)OC)CC4)C3)cc2)C1 [compound 197]
